Drawing on patent US7338959B2, “Diamino-pyrimidines and their use as angiogenesis inhibitors” (SmithKline Beecham Corporation, priority 2002, dated 2008), this text covers IC50 for six molecules.

Where a name gives a salt, the structure may show the parent alone.

One test has as its target T1, GST-VEGFR2 (Homo sapiens, UniProt P35968).
T1 construct: baculovirus expressed recombinant constructs of the intracellular domains of human TIE2 tagged by GST; made in house
Briefly: VEGF-R2 enzyme assay (VEGF-E), LANCE method. It is filed as biochemical. The settings on record: GST-VEGFR2, 75 uM ATP, biotinylated peptide. The source says:
VEGF-R2 Enzyme Assay (VEGF-E)
The VEGF enzyme assay used the LANCE method (Wallac) and GST-VEGFR2, baculovirus expressed recombinant constructs of the intracellular domains of human TIE2 tagged by GST. The method measured the ability of the purified enzymes to catalyse the transfer of the γ-phosphate from ATP onto tyrosine residues in a biotinylated synthetic peptide, (biotin-aminohexyl-EEEEYFELVAKKKK-NH2). This peptide phosphorylation was detected using the following procedure: GST-VEGFR2 was incubated for 40-60 mins at room temperature with 75 uM ATP, 5 mM MgCl2, 0.1 mM DTT, 0.1 mg/mL BSA and the test compound (diluted from a 10 mM stock in DMSO for desired concentration) in 100 mM HEPES buffer. The reaction was stopped by the addition of EDTA (final concentration 50 mM). Streptavidin linked-APC (allophycocyanin, Molecular Probe) and Europium-labeled anti-phosphorylated tyrosine antibody (Wallac) were then added at the final concentration of 15 nM and 1 nM, respectively. The APC signal was measured using an ARVO multilabel counter (Wallac Berthold, Japan). The percent inhibition of activity was calculated relative to blank control wells. The concentration of test compound that inhibits 50% of activity (IC50) was interpolated using nonlinear regression (Levernberg-Marquardt) and the equation, y=Vmax (1−x/(K+x))+Y2, where “K” was equal to the IC50. The IC50 values were converted to pIC50 values, i.e., −log IC50 in Molar concentration.

The test system of test [1] is Human umbilical cord endothelial cells (HUVEC). The experiment in a line: VEGF-driven cellular proliferation assay: BrdU incorporation assay (VEGF-C). As to conditions: 20 ng/ml VEGF. It is filed as cell-based. As for the experimental part: VEGF-Driven Cellular Proliferation Assay: BrdU Incorporation Assay (VEGF-C)
Human umbilical cord endothelial cells (HUVEC, Clonetics, CC2519) were passaged in Type I collagen-coated 100-mm petridishes in EGM-MV medium (Clonetics, CC3125) at 37 C in a humidified 5% CO2, 95% air incubator. (HUVEC passaged more than 6 times in vitro were discarded and not subjected to assaying.) The cells were harvested using trypsin/EDTA, counted using a haemocytometer and plated at 5000 cells/well in a Type I-collagen coated 96-well plate (Becton Dickinson, 354407) in M199 medium (Gibco BRL, 12340-030) containing 5% FBS (Hyclone, A 1115-L) and gentamicin (at 50 ug/ml, Gibco BRL). After incubation overnight at 37° C., the media were replaced with 100 ul of M199 serum-free medium containing compounds at various concentrations with 0.6% DMSO and gentamicin. The compounds were diluted in serum-free M199 medium from 10 mM stock solutions prepared in 100% DMSO. After a 30 min incubation at 37° C., the cells were fed with 100 ul of serum-free M199 medium containing gentamicin, 0.2% culture-grade bovine serum albumin (BSA, Sigma A1993) and 20 ng/ml of VEGF (REtD systems, 293-VE) or 0.6 ng/ml of basic FGF (REtD systems, 233-FB), and cultured at 37° C. for another 24 h. The cells were pulsed with bromodeoxyuridine (BrdU at 10 uM in serum-free M199) at 37° C. for an additional 24 h. The incorporation of BrdU into the proliferating HUVEC were analyzed using BrdU Cell Proliferation ELISA (Roche Molecular Biochemicals, 1647229) according to the manufacturer's protocols. The optical density at 450 nm was measured with a multilabel counter (ARVO SX, Wallac). The percent inhibition of cell growth was calculated relative to blank control wells. The concentration of test compound that inhibits 50% of cell growth (IC50) was interpolated using nonlinear regression (Levernberg-Marquardt) and the equation, y=Vmax (1−x/(K+x))+Y2, where “K” was equal to the IC50. The IC50 values were converted to pIC50 values, i.e., −log IC50 in Molar concentration.

T1 sequence (P35968 786-1356 limits assumed): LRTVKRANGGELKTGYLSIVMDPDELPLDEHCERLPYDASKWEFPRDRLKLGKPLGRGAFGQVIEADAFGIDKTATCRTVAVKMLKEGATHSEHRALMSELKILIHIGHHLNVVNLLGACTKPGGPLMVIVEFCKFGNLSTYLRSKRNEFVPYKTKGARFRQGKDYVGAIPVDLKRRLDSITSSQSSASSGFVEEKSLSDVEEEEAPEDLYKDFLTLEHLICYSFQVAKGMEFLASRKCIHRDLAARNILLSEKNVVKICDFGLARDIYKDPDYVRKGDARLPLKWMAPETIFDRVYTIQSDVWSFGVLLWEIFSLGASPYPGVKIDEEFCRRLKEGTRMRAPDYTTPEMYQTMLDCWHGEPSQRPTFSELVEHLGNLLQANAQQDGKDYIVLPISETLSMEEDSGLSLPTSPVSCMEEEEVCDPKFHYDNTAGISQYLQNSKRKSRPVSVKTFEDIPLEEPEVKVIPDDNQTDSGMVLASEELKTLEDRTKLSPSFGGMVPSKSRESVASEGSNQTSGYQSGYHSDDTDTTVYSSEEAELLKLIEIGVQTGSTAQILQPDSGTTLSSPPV

`CC(C)Nc1nc2cc(N(C)c3ccnc(Nc4ccc(CS(C)(=O)=O)cc4)n3)ccc2n1C` [Example 1, N^2-isopropyl-N^5,1-dimethyl-N^5-[2-({4-[(methylsulfonyl)methyl]phenyl}amino)pyrimidin-4-yl]-1H-benzimidazole-2,5-diamine hydrochloride]: the half-inhibitory concentration (IC50) (on GST-VEGFR2; in test [1]) was < 100 nM throughout.

As to `CC(C)Nc1nc2cc(N(C)c3ccnc(Nc4ccc(CS(N)(=O)=O)cc4)n3)ccc2n1C` [Example 2, hydrochloride], the IC50 (against GST-VEGFR2; in test [1]) was < 100 nM throughout.

With `CNc1nc2cc(N(C)c3ccnc(Nc4ccc(CS(C)(=O)=O)cc4)n3)ccc2n1C` [Example 3, hydrochloride], the IC50 (against GST-VEGFR2; in test [1]) was < 100 nM each time.

Consider `CN(c1ccc2c(c1)nc(NCc1ccccc1)n2C)c1ccnc(Nc2ccc(CS(C)(=O)=O)cc2)n1` [Example 4, N^2-benzyl-N^5,1-dimethyl-N^5-[2-({4-[(methylsulfonyl)methyl]phenyl}amino)pyrimidin-4-yl]-1H-benzimidazole-2,5-diamine hydrochloride], for which the half-inhibitory concentration (IC50) (at GST-VEGFR2; in test [1]) was < 100 nM in each case.

On to `CN(c1ccc2c(c1)nc(Nc1ccccc1)n2C)c1ccnc(Nc2ccc(CS(C)(=O)=O)cc2)n1` [Example 5, N^5,1-Dimethyl-N^5-[2-({4-[(methylsulfonyl)methyl]phenyl}amino)pyrimidin-4-yl]-N^2-phenyl-1H-benzimidazole-2,5-diamine trifluoroacetic acid], for which the IC50 (against GST-VEGFR2; in test [1]) was < 100 nM each time.

For the molecule `CONS(=O)(=O)c1cc(Nc2nccc(N(C)c3ccc4c(c3)nc(NCc3ccccc3)n4C)n2)ccc1C` [Example 6, 5-({4-[[2-(Benzylamino)-1-methyl-1H-benzimidazol-5-yl](methyl)amino]pyrimidin-2-yl}amino)-N-methoxy-2-methylbenzenesulfonamide], the half-maximal inhibitory concentration (IC50) (at GST-VEGFR2; in test [1]) was < 100 nM each time.
